ChEMBL document CHEMBL1156001, “Synthesis and in vitro DMPK profiling of a 1,2-dioxolane-based library with activity against Plasmodium falciparum” (Bioorg Med Chem Lett, 2009)

Key:
[1] = Octanol-PBS partition coefficient, log D at […] at pH 7.4; format: physicochemical
[2] = Membrane permeability at […] at pH 6.5 to 7.4 after 4 hrs by PAMPA; format: ADME; settings: read-out: permeability
[3] = Intrinsic clearance in rat liver microsomes after 10 to 45 mins by LCMS/MS analysis; format: ADME, Microsome
[4] = Intrinsic clearance in human liver microsomes after 10 to 45 mins by LCMS/MS analysis; format: ADME, Microsome

SMILES	logD [1]	Papp at 4 h [2]	microsomal CLint [3]	microsomal CLint [4]
CC1(CC(=O)NCc2ccc(-c3cccs3)cc2)CC2(CCCCC2)OO1 (stereo not given)	3.7	–	–	–
CN(C)c1ccc(CNC(=O)CC2(C)CC3(CCCCC3)OO2)cc1 (stereo not given)	3.1	90 ×10⁻⁶ cm/s	–	–
COc1cc(CNC(=O)CC2(C)CC3(CCCCC3)OO2)cc(OC)c1OC (stereo not given)	2.3	54 ×10⁻⁶ cm/s	–	–
CC1(CC(=O)NCc2cccc(Cl)c2)CC2(CCCCC2)OO1 (stereo not given)	3.7	–	–	–
CC1(CC(=O)NCc2ccc(OC(F)F)cc2)CC2(CCCCC2)OO1 (stereo not given)	3.1	–	–	–
CC1(CC(=O)NCc2ccncc2)CC2(CCCCC2)OO1 (stereo not given)	2.1	18 ×10⁻⁶ cm/s	–	–
CC1(CC(=O)NCc2ccc(Br)cc2F)CC2(CCCCC2)OO1 (stereo not given)	4.1	–	–	–
CC1(CC(=O)NCc2ccccc2N)CC2(CCCCC2)OO1 (stereo not given)	2.5	37 ×10⁻⁶ cm/s	–	–
CC1(CC(=O)NCc2cccc(Cl)c2Cl)CC2(CCCCC2)OO1 (stereo not given)	3.4	–	–	–
CC1(CC(=O)NCc2ccccc2N2CCCCC2)CC2(CCCCC2)OO1 (stereo not given)	> 3.5	62 ×10⁻⁶ cm/s	–	–
CC1(CC(=O)NCc2ccc3c(c2)OCC=CO3)CC2(CCCCC2)OO1 (stereo not given)	3.1	55 ×10⁻⁶ cm/s	–	–
CC1(CC(=O)NCc2ccc(-c3ccc(F)cc3)cc2)CC2(CCCCC2)OO1 (stereo not given)	4.8	–	–	–
COC(=O)c1ccc(CNC(=O)CC2(C)CC3(CCCCC3)OO2)cc1 (stereo not given)	3.4	57 ×10⁻⁶ cm/s	–	–
CC1(CC(=O)NCc2ccc3c(c2)OCCO3)CC2(CCCCC2)OO1 (stereo not given)	2.7	56 ×10⁻⁶ cm/s	–	–
CC1(CC(=O)NCc2ccc([N+](=O)[O-])cc2)CC2(CCCCC2)OO1 (stereo not given)	3.4	49 ×10⁻⁶ cm/s	–	–
CC(C)(C)OC(=O)Nc1cccc(CCNC(=O)CC2(C)CC3(CCCCC3)OO2)c1 (stereo not given)	3	–	–	–
CC1(CC(=O)NCc2ccc(Cl)cc2Cl)CC2(CCCCC2)OO1 (stereo not given)	> 3.5	–	–	–
CC1(CC(=O)NCc2ccc(C(=O)O)cc2)CC2(CCCCC2)OO1 (stereo not given)	0.3	–	–	–
COc1cc(CNC(=O)CC2(C)CC3(CCCCC3)OO2)cc(OC)c1 (stereo not given)	3.3	55 ×10⁻⁶ cm/s	–	–
CC1(CC(=O)NCc2cccc(-c3ccccc3)c2)CC2(CCCCC2)OO1 (stereo not given)	3.8	–	–	–
CC1(CC(=O)NCc2ccc(C(C)(C)C)cc2)CC2(CCCCC2)OO1 (stereo not given)	3.5	–	–	–

SMILES	logD [1]	Papp at 4 h [2]	microsomal CLint [3]	microsomal CLint [4]
CC1(CC(=O)NCc2ccc(N3CCOCC3)cc2)CC2(CCCCC2)OO1 (stereo not given)	2.7	–	–	–
CC1(CC(=O)NCc2cccc(Br)c2)CC2(CCCCC2)OO1 (stereo not given)	3.3	–	–	–
CC1(CC(=O)NCc2ccccc2Sc2ccccc2CO)CC2(CCCCC2)OO1 (stereo not given)	4.3	77 ×10⁻⁶ cm/s	–	–
CC1(CC(=O)NCc2ccc(Oc3cc(C(F)(F)F)cc(C(F)(F)F)c3)cc2)CC2(CCCCC2)OO1 (stereo not given)	3.2	–	–	–
CC1(CC(=O)NCc2ccc(OC(F)(F)F)cc2)CC2(CCCCC2)OO1 (stereo not given)	3.2	–	–	–
CC1(CC(=O)NCc2ccc(Oc3ccc(F)cc3)cc2)CC2(CCCCC2)OO1 (stereo not given)	> 3.5	–	–	–
CCOc1ccccc1CNC(=O)CC1(C)CC2(CCCCC2)OO1 (stereo not given)	3.1	74 ×10⁻⁶ cm/s	–	–
CC1(CC(=O)NCCNc2ccnc3cc(Cl)ccc23)CC2(CCCCC2)OO1 (stereo not given)	3.4	66 ×10⁻⁶ cm/s	> 119 µL/min/mg	> 72 µL/min/mg
CC1(CC(=O)NCc2ccc(-n3cccc3)cc2)CC2(CCCCC2)OO1 (stereo not given)	4.3	70 ×10⁻⁶ cm/s	–	–
CC1(CC(=O)NCc2cccc(C(F)(F)F)c2)CC2(CCCCC2)OO1 (stereo not given)	4	–	–	–
COc1cccc(CNC(=O)CC2(C)CC3(CCCCC3)OO2)c1 (stereo not given)	3.1	65 ×10⁻⁶ cm/s	–	–
CC1(CC(=O)NCc2cccc(I)c2)CC2(CCCCC2)OO1 (stereo not given)	3.5	–	–	–
CSc1ccc(CNC(=O)CC2(C)CC3(CCCCC3)OO2)cc1 (stereo not given)	3.7	97 ×10⁻⁶ cm/s	–	–
CC1(CC(=O)NCc2ccccn2)CC2(CCCCC2)OO1 (stereo not given)	2.3	33 ×10⁻⁶ cm/s	–	–
CC1(CC(=O)NCc2cccc(Oc3ccc(Cl)cc3)c2)CC2(CCCCC2)OO1 (stereo not given)	3.2	–	–	–
CC1(CC(=O)NCc2ccc3c(c2)OCC3)CC2(CCCCC2)OO1 (stereo not given)	2.8	–	–	–
CC1(CC(=O)NCc2ccc(-c3cc(Cl)cc(Cl)c3)cc2)CC2(CCCCC2)OO1 (stereo not given)	> 3.5	–	–	–
Cc1cc(Cl)ccc1CNC(=O)CC1(C)CC2(CCCCC2)OO1 (stereo not given)	4.2	–	–	–
CC1(CC(=O)NCc2ccccc2OC(F)(F)F)CC2(CCCCC2)OO1 (stereo not given)	3.3	–	–	–
CC1(CC(=O)NCc2ccc(S(N)(=O)=O)cc2)CC2(CCCCC2)OO1 (stereo not given)	1.4	–	–	–
